pIC50: −log10 of the molar value. ≈ marks a conversion by molar mass, not a printed value.
Experiments:
Enterococcus faecalis [1] = test: Inhibitory activity against Enterococcus faecalis KU 1777; type: functional
Enterococcus faecalis [2] = test: Inhibitory activity against Enterococcus faecalis ATCC 29212; type: functional
Staphylococcus aureus [3] = test: Inhibitory activity against Staphylococcus aureus KMP9; type: functional
Staphylococcus aureus [4] = test: Inhibitory activity against Staphylococcus aureus FDA 209P; type: functional
DNA gyrase [5] = target: DNA gyrase (Escherichia coli, UniProt P0AES4+P0AES6); test: (§1) Inhibitory activity against Escherichia coli DNA gyrase; type: protein-complex assay
DNA topoisomerase II [6] = target: T1, DNA topoisomerase II (Homo sapiens, UniProt P11388+Q02880); test: Inhibitory activity against human DNA topoisomerase II; type: protein assay
Nucleic Acid [7] = test: Inhibitory activity against Escherichia coli DNA topoisomerase IV; type: nucleic-acid assay
DNA topoisomerase II [8] = target: T1, DNA topoisomerase II; test: Human DNA topoisomerase II relaxation activity was determined; type: protein assay
Nucleic Acid [9] = test: Escherichia coli DNA topoisomerase IV decatenation activity was determined; type: nucleic-acid assay
DNA gyrase [10] = target: DNA gyrase (Escherichia coli, UniProt P0AES6+P0AES4); test: as §1; type: protein-complex assay
[11] = Enterococcus faecalis, read-out: MIC
[12] = Enterococcus faecalis, ATCC 29212, read-out: MIC
[13] = Staphylococcus aureus, read-out: MIC

Row | Structure (SMILES) | MIC (Enterococcus faecalis [1]; [11]) [µg/mL] | MIC (Enterococcus faecalis [2]; [12]) [µg/mL] | MIC (Staphylococcus aureus [3]; [13]) [µg/mL] | MIC (Staphylococcus aureus [4]; [13]) [µg/mL] | pIC50 (DNA gyrase [5]) | IC50 (DNA topoisomerase II [6]) [µg/mL] | IC50 (Nucleic Acid [7]) [µg/mL] | IC50 (DNA topoisomerase II [8]) [µg/mL] | IC50 (Nucleic Acid [9]) [µg/mL] | MIC (Enterococcus faecalis [2]) [µg/mL] | MIC (Staphylococcus aureus [3]) [µg/mL] | MIC (Staphylococcus aureus [4]) [µg/mL] | pIC50 (DNA gyrase [10]) | MIC (Enterococcus faecalis [1]) [µg/mL]
1 | CCOC(=O)CCCNc1[nH]nc2cccc(OCc3ccc(C(C)(C)C)cc3)c12 | 16 (≈ 39.1 µM) | 16 (≈ 39.1 µM) | 16 (≈ 39.1 µM) | 16 (≈ 39.1 µM) | 4.41 | – | – | – | – | – | – | – | – | –
2 | COC(=O)C1CCN(Cc2n[nH]c3cccc(OCc4ccc(C(C)(C)C)cc4)c23)CC1 | 32 (≈ 73.5 µM) | 32 (≈ 73.5 µM) | 32 (≈ 73.5 µM) | 32 (≈ 73.5 µM) | 4.43 | – | – | – | – | – | – | – | – | –
3 | COC(=O)[C@@H]1C[C@@H](NCc2n[nH]c3cccc(OCc4ccc(C(C)(C)C)cc4)c23)CN1 | 64 (≈ 147 µM) | 128 (≈ 293 µM) | 128 (≈ 293 µM) | 64 (≈ 147 µM) | 4.74 | – | – | – | – | – | – | – | – | –
4 | CC(C)(C)c1ccc(COc2cccc3[nH]nc(CN[C@H]4CN[C@H](CO)C4)c23)cc1 | 32 (≈ 78.3 µM) | 64 (≈ 157 µM) | 64 (≈ 157 µM) | 32 (≈ 78.3 µM) | 4.11 | – | – | – | – | – | – | – | – | –
5 | COC(=O)C1CCCC(Nc2[nH]nc3cccc(OCc4ccccc4)c23)C1 (configuration not stated) | 64 (≈ 169 µM) | 64 (≈ 169 µM) | 64 (≈ 169 µM) | 64 (≈ 169 µM) | 4.68 | – | – | – | – | – | – | – | – | –
6 | CNCc1n[nH]c2cccc(OCc3ccc(C(C)(C)C)cc3)c12 | 16 (≈ 49.5 µM) | 32 (≈ 98.9 µM) | 64 (≈ 198 µM) | 32 (≈ 98.9 µM) | 3.70 | – | – | – | – | – | – | – | – | –
7 | c1ccc(COc2ccc(-c3cc(C4CCNCC4)[nH]n3)cc2)cc1 | 64 (≈ 192 µM) | 64 (≈ 192 µM) | 64 (≈ 192 µM) | 64 (≈ 192 µM) | 3.42 | 200 (≈ 600 µM) | 128 (≈ 384 µM) | – | – | – | – | – | – | –
8 | COC(=O)[C@@H]1C[C@H](NCc2n[nH]c3cccc(OCc4ccc(C(C)(C)C)cc4)c23)CN1 | 64 (≈ 147 µM) | 64 (≈ 147 µM) | 64 (≈ 147 µM) | 64 (≈ 147 µM) | 4.74 | – | – | – | – | – | – | – | – | –
9 | Cc1cc(=O)oc2cc(CCc3n[nH]c4cccc(OCc5ccc(C(C)(C)C)cc5)c34)ccc12 | > 128 | > 128 | > 128 | > 128 | 6.27 | > 400 | > 128 | – | – | – | – | – | – | –
10 | COC(=O)C1CCCC(Nc2[nH]nc3cccc(OCc4ccc(F)c(F)c4)c23)C1 (configuration not stated) | 128 (≈ 308 µM) | 128 (≈ 308 µM) | 128 (≈ 308 µM) | 128 (≈ 308 µM) | 4.41 | – | – | – | – | – | – | – | – | –
11 | COC(=O)C1CN(Cc2n[nH]c3cccc(OCc4ccc(C(C)(C)C)cc4)c23)CCC1=O (configuration not stated) | > 128 | > 128 | > 128 | > 128 | 5.05 | – | – | – | – | – | – | – | – | –
12 | COC(=O)C1CCCC(NCc2n[nH]c3cccc(OCc4ccc(C(C)(C)C)cc4)c23)C1 (configuration not stated) | 4 (≈ 8.9 µM) | 8 (≈ 17.8 µM) | 4 (≈ 8.9 µM) | 4 (≈ 8.9 µM) | 5.05 | – | – | > 400 | > 128 | – | – | – | – | –
13 | Clc1cccc(-n2nc(C3CCNCC3)cc2/C=C/c2c[nH]c3ccc(Cl)cc23)c1 | 2 (≈ 4.57 µM) | 2 (≈ 4.57 µM) | 1 (≈ 2.29 µM) | 1 (≈ 2.29 µM) | 4.49 | – | – | > 400 | 8 (≈ 18.3 µM) | – | – | – | – | –
14 | Cn1cc(/C=C/c2cc(C3CCNCC3)nn2-c2cccc(Cl)c2)c2cc(Cl)ccc21 | 2 (≈ 4.43 µM) | 2 (≈ 4.43 µM) | 1 (≈ 2.22 µM) | 1 (≈ 2.22 µM) | 4.51 | – | – | > 400 | 8 (≈ 17.7 µM) | – | – | – | – | –
15 | CC(C)(C)c1ccc(COc2cccc3[nH]nc(NCCCC(=O)O)c23)cc1 | > 128 | > 128 | > 128 | > 128 | 4.08 | – | – | – | – | – | – | – | – | –
16 | COC(=O)C1CCCC(Nc2[nH]nc3cccc(OCc4cnc(Cl)c(Cl)c4)c23)C1 (configuration not stated) | > 128 | > 128 | > 128 | > 128 | 3.85 | – | – | – | – | – | – | – | – | –

Row | Structure (SMILES) | MIC (Enterococcus faecalis [1]; [11]) [µg/mL] | MIC (Enterococcus faecalis [2]; [12]) [µg/mL] | MIC (Staphylococcus aureus [3]; [13]) [µg/mL] | MIC (Staphylococcus aureus [4]; [13]) [µg/mL] | pIC50 (DNA gyrase [5]) | IC50 (DNA topoisomerase II [6]) [µg/mL] | IC50 (Nucleic Acid [7]) [µg/mL] | IC50 (DNA topoisomerase II [8]) [µg/mL] | IC50 (Nucleic Acid [9]) [µg/mL] | MIC (Enterococcus faecalis [2]) [µg/mL] | MIC (Staphylococcus aureus [3]) [µg/mL] | MIC (Staphylococcus aureus [4]) [µg/mL] | pIC50 (DNA gyrase [10]) | MIC (Enterococcus faecalis [1]) [µg/mL]
17 | CC(C)(C)c1ccc(COc2cccc3[nH]nc(CN[C@@H]4CN[C@H](CO)C4)c23)cc1 | 64 (≈ 157 µM) | 64 (≈ 157 µM) | 64 (≈ 157 µM) | 64 (≈ 157 µM) | 3.81 | – | – | – | – | – | – | – | – | –
18 | COC(=O)C1CCCC(Nc2[nH]nc3cccc(OCc4ccc(C(C)(C)C)cc4)c23)C1 (configuration not stated) | 4 (≈ 9.18 µM) | 8 (≈ 18.4 µM) | 4 (≈ 9.18 µM) | 4 (≈ 9.18 µM) | 5.04 | – | – | – | – | – | – | – | – | –
19 | COC(=O)C1CCCC(NCc2cc(/C=C/c3ccc(Cl)c(Cl)c3)[nH]n2)C1 (configuration not stated) | 16 (≈ 39.2 µM) | 16 (≈ 39.2 µM) | 8 (≈ 19.6 µM) | 4 (≈ 9.8 µM) | 4.41 | – | – | – | – | – | – | – | – | –
20 | COC(=O)C1CCCC(Nc2[nH]nc3cccc(OCc4ccc(Cl)c(Cl)c4)c23)C1 (configuration not stated) | 4 (≈ 8.92 µM) | 4 (≈ 8.92 µM) | 4 (≈ 8.92 µM) | 4 (≈ 8.92 µM) | 5.65 | – | – | – | – | – | – | – | – | –
21 | COC(=O)C1CCCC(NCc2cc(/C=C\c3ccc(Cl)c(Cl)c3)[nH]n2)C1 (configuration not stated) | 16 (≈ 39.2 µM) | 16 (≈ 39.2 µM) | 8 (≈ 19.6 µM) | 4 (≈ 9.8 µM) | 4.41 | – | – | – | – | – | – | – | – | –
22 | COC(=O)C1CCCC(NCc2n[nH]c3cccc(OCc4ccc(Cl)c(Cl)c4)c23)C1 (configuration not stated) | 4 (≈ 8.65 µM) | 4 (≈ 8.65 µM) | 4 (≈ 8.65 µM) | 4 (≈ 8.65 µM) | 5.66 | – | – | > 400 | > 128 | – | – | – | – | –
23 | COC(=O)C1CCCN(Cc2n[nH]c3cccc(OCc4ccc(C(C)(C)C)cc4)c23)C1 (configuration not stated) | 32 (≈ 73.5 µM) | 64 (≈ 147 µM) | 64 (≈ 147 µM) | 32 (≈ 73.5 µM) | 4.43 | – | – | – | – | – | – | – | – | –
24 | COC(=O)C1CCCC(Nc2[nH]nc3cccc(OCc4ccc(Cl)cc4)c23)C1 (configuration not stated) | 32 (≈ 77.3 µM) | 64 (≈ 155 µM) | 32 (≈ 77.3 µM) | 32 (≈ 77.3 µM) | 4.41 | – | – | – | – | – | – | – | – | –
25 | CC(C)(C)c1ccc(COc2cccc3[nH]nc(CN4CCNCC4)c23)cc1 | 16 (≈ 42.3 µM) | 32 (≈ 84.5 µM) | 32 (≈ 84.5 µM) | 16 (≈ 42.3 µM) | 3.77 | – | – | – | – | – | – | – | – | –
26 | CCOC(=O)C1CCCN(Cc2n[nH]c3cccc(OCc4ccc(C(C)(C)C)cc4)c23)C1 (configuration not stated) | 16 (≈ 35.6 µM) | 16 (≈ 35.6 µM) | 32 (≈ 71.2 µM) | 16 (≈ 35.6 µM) | 4.75 | – | – | – | – | – | – | – | – | –
27 | COC(=O)C1CCCC(NCc2cc(/C=C/c3cn(C)c4ccc(Cl)cc34)[nH]n2)C1 (stereo in doubt; 7ba) | – | – | – | – | – | – | – | – | – | 32 (≈ 75 µM) | 8 (≈ 18.7 µM) | 8 (≈ 18.7 µM) | 5.63 | –
28 | COC(=O)C1CCCC(NCc2cc(/C=C/c3cn(C)c4ccc(Cl)cc34)[nH]n2)C1 (stereo in doubt; 7bb) | 32 (≈ 75 µM) | 64 (≈ 150 µM) | 16 (≈ 37.5 µM) | 16 (≈ 37.5 µM) | 5.63 | – | – | – | – | – | – | – | – | –
29 | COC(=O)C1CCCC(NCc2cc(/C=C\c3cn(C)c4ccc(Cl)cc34)[nH]n2)C1 (stereo in doubt; 8ba) | – | – | 8 (≈ 18.7 µM) | 4 (≈ 9.37 µM) | 5.63 | – | – | – | – | 8 (≈ 18.7 µM) | – | – | – | 8 (≈ 18.7 µM)
30 | COC(=O)C1CCCC(NCc2cc(/C=C\c3cn(C)c4ccc(Cl)cc34)[nH]n2)C1 (stereo in doubt; 8bb) | – | – | – | – | 5.93 | – | – | – | – | 64 (≈ 150 µM) | 16 (≈ 37.5 µM) | 8 (≈ 18.7 µM) | – | 32 (≈ 75 µM)
31 | CO[C@@H]1[C@@H](OC(N)=O)[C@@H](O)[C@H](Oc2ccc3c(O)c(NC(=O)c4ccc(O)c(CC=C(C)C)c4)c(=O)oc3c2C)OC1(C)C [NOVOBIOCIN] | 2 (≈ 3.26 µM) | 2 (≈ 3.26 µM) | 0.25 (≈ 0.408 µM) | 0.25 (≈ 0.408 µM) | – | > 400 | 25 (≈ 40.8 µM) | – | – | – | – | – | – | –

— ChEMBL document CHEMBL1146758, “Design, synthesis and structure-activity relationship studies of novel indazole analogues as DNA gyrase inhibitors with Gram-positive antibacterial activity” (Bioorg Med Chem Lett, 2004)
